Data as given in US11865195B2, “Evaluation of presence of and vulnerability to atrial fibrillation and other indications using matrix metalloproteinase-based imaging” (Lantheus Medical Imaging, Inc., priority 2011, dated 2024).
Like-named read-outs stand apart in the source and are kept apart here.

How the values were obtained:
MMPs = settings: cited from earlier work; for selectivity for MMP-2 and MMP-9 over the other MMPs: derivatized alanine hydroxamates
activated MMP-9 = biological target: T1, activated MMP-9 (Homo sapiens, UniProt P14780); assay: In-vitro MMP inhibition assay (fluorogenic peptide substrate); format: biochemical; settings: 1 h at 27° C., triplicate
T1 construct: purchased R&D Systems
T1 sequence (P14780 107-707 limits assumed): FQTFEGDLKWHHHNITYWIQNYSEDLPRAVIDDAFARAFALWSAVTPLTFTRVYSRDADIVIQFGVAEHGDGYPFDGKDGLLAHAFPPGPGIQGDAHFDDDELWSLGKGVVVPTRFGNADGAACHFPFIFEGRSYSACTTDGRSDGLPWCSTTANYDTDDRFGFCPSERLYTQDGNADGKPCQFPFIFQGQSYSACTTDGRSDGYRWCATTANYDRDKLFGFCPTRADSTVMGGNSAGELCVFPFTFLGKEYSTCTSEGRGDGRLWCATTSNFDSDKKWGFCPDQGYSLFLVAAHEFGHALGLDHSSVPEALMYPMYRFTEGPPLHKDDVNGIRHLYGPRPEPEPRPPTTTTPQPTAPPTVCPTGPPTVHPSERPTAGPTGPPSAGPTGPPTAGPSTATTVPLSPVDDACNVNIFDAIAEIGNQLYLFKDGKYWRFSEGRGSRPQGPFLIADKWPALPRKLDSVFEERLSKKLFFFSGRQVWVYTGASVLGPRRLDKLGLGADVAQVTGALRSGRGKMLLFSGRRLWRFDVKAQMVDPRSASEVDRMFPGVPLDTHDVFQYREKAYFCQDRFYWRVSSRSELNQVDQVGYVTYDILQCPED
Description: (§1) Individual inhibitors were dissolved in TCN buffer (50 mM Tris-HCl, 10 mM CaCl2, 150 mM […], 0.05% Brij 35 at pH 7.5) at appropriate dilutions then added to the wells of a microtiter plate (10 μL/well) in triplicate. Each well of test agent (and appropriate control wells) was then treated with activated MMP-2 or 9 (10 μL of a 40 nM solution in 50 mM Hepes, 10 mM CaCl2), 1% Brij 35 at pH 7.5; R&D Systems) followed by 30 μL TCN buffer and 150 μL the fluorogenic peptide substrate (Mca-PLGL-Dpa-AR-NH2; R&D Systems). The resulting mixtures were incubated 1 h at 27° C. then analyzed using a FL600 fluorescent plate reader (excitation=310/20; emission=420/50; optics=bottom; sensitivity=225) and KC4 Software.

activated MMP-2 = biological target: T2, activated MMP-2 (Homo sapiens, UniProt P08253); assay: as above; format: biochemical; settings: 1 h at 27° C., triplicate
T2 construct: purchased R&D Systems
T2 sequence (P08253 110-660): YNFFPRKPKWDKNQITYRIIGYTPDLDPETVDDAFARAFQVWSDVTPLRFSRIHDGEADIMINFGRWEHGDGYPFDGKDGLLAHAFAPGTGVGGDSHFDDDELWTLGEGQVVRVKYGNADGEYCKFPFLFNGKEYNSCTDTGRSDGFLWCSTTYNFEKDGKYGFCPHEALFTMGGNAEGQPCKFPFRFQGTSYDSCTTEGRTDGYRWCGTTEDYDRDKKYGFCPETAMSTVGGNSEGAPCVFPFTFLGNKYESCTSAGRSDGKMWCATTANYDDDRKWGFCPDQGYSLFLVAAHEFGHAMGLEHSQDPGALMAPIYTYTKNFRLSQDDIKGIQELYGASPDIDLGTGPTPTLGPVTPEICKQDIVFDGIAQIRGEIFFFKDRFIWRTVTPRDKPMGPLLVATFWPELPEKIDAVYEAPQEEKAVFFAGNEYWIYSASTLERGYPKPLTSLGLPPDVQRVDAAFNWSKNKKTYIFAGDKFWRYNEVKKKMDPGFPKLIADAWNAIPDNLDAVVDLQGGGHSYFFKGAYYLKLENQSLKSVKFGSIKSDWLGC
Description: as §1

[1] = Tissue biodistribution in the Oncomouse; format: in vivo, mice; settings: tail vein injection, 1 h post-injection, mean±SEM
Description: Oncomice®, obtained through an in-house breeding program, were anesthetized intramuscularly with 0.1 mL of ketamine/acepromazine (1.8 mL saline, 1.0 mL ketamine, and 0.2 mL acepromazine) prior to dosing and tissue sampling. Individual mice were then injected via the tail vein with an imaging agent of the present invention (0.5-2.0 mCi/kg in 0.1 mL). Mice were euthanized and biodistribution performed at 1 h post-injection. Selected tissues were removed, weighed, and counted on a gamma counter. Results are expressed as the percentage of injected dose per gram tissue (mean±SEM; Table 3).

activated MMPs = assay: MicroSPECT/CT imaging of aortic arch MMP activation in ApoE-/- mice under anti-lipid therapies; format: in vivo; settings: 4 weeks of therapy; HFD group 4.99±0.27
Description: Methods: ApoE^−/− mice were fed a high fat diet (HFD) for 2 months to induce atherosclerosis. After two months, the mice were randomly assigned to one of 4 groups: HFD, HFD plus simvastatin (Sim), HFD plus fenofibrate (Fen) and high fat withdrawal (HFW). MicroSPECT/CT imaging using ^99mTc-RP805, a tracer with specificity for activated MMPs was performed after one week and 4 weeks.

CCCCCCCCC[C@H](CC(=O)NO)C(=O)N[C@H](C(=O)NC)C(C)(C)C [1-5]
selectivity for MMP-2 over MMP-1 and MMP-3 (MMPs; long alkyl substituent at P1' position): imparts selectivity

CNC(=O)[C@@H]1Cc2ccc(cc2)OCCC[C@H](C(=O)NO)[C@@H](CC(C)C)C(=O)N1 [1-6]
activity against MMPs (MMPs; macrocyclic succinyl hydroxamate): nanomolar activity

O=C(NO)C1CCCN[C@@H]1C(=O)N1CCC(c2ccccc2)CC1 (stereo partly drawn) [1-8]
inhibition of MMPs (MMPs; succinyl hydroxamate with modified P2' and P3' positions): potent inhibition

COc1ccc(Oc2ccc([C@]3(C)CCN([C@H](C)C(=O)NO)C3=O)cc2)cc1OC [1-11]
selectivity for MMP-2 and MMP-9 over the other MMPs (MMPs): show selectivity

C[C@H](C(=O)NO)N1CCNc2cc(OCc3ccccc3)ccc2S1(=O)=O [1-12]
selectivity for MMP-2 and MMP-9 over the other MMPs (MMPs): show selectivity

O=C(NO)C1(CS(=O)(=O)c2ccc(Oc3ccc(Cl)cc3)cc2)CCOCC1 [1-13]
selectivity for MMP-2 and MMP-9 over MMP-1 (MMPs): selectivity

CCCCCCC[C@H](CC(=O)CS)C(=O)N[C@H](C(=O)NC)C(C)(C)C [1-15]
activity against MMPs (MMPs; succinyl thiol): good activity

CC(C)C[C@H]1C(=O)N[C@H](C(=O)NCCCF)Cc2ccc(cc2)OCCC[C@@H]1C(=O)NO [Imaging Agent 1]
IC50 (activated MMP-9): 3.54 nM
IC50 (activated MMP-2): 5.19 nM

CC(C)C[C@H]1C(=O)N[C@H](C(=O)NCCCCCCF)Cc2ccc(cc2)OCCC[C@@H]1C(=O)NO [Imaging Agent 2]
Imaging agent distribution, blood [1]: 1.07 ± 0.060 % ID/g
Imaging agent distribution, bone [1]: 2.02 ± 0.320 % ID/g
Imaging agent distribution, heart [1]: 0.95 ± 0.065 % ID/g
Imaging agent distribution, kidney [1]: 20.6 ± 3.25 % ID/g
Imaging agent distribution, liver [1]: 13.1 ± 2.17 % ID/g
Imaging agent distribution, lung [1]: 0.97 ± 0.121 % ID/g
Imaging agent distribution, muscle [1]: 0.50 ± 0.073 % ID/g
Imaging agent distribution, spleen [1]: 0.69 ± 0.085 % ID/g
Imaging agent distribution, tumor [1]: 0.95 ± 0.103 % ID/g
Imaging agent distribution, urine [1]: 71.8 % ID/g
IC50 (activated MMP-9): 20.2 nM
IC50 (activated MMP-2): 31.6 nM

CC(C)C[C@H]1C(=O)N[C@H](C(=O)NCC(=O)NCCCF)Cc2ccc(cc2)OCCC[C@@H]1C(=O)NO [Imaging Agent 3]
IC50 (activated MMP-9): 2.59 nM
IC50 (activated MMP-2): 4.61 nM

CC(C)C[C@H]1C(=O)N[C@H](C(=O)NCC(=O)NCCCCCF)Cc2ccc(cc2)OCCC[C@@H]1C(=O)NO [Imaging Agent 4]
Imaging agent distribution, blood [1]: 0.41 ± 0.099 % ID/g
Imaging agent distribution, bone [1]: 1.28 ± 0.200 % ID/g
Imaging agent distribution, heart [1]: 0.36 ± 0.064 % ID/g
Imaging agent distribution, kidney [1]: 14.8 ± 1.79 % ID/g
Imaging agent distribution, liver [1]: 23.6 ± 5.19 % ID/g
Imaging agent distribution, lung [1]: 0.45 ± 0.071 % ID/g
Imaging agent distribution, muscle [1]: 0.17 ± 0.043 % ID/g
Imaging agent distribution, spleen [1]: 0.34 ± 0.057 % ID/g
Imaging agent distribution, tumor [1]: 1.12 ± 0.204 % ID/g
Imaging agent distribution, urine [1]: 7.67 ± 5.00 % ID/g
IC50 (activated MMP-9): 15.3 nM
IC50 (activated MMP-2): 15.4 nM

CC(C)C[C@H]1C(=O)N[C@H](C(=O)NCc2ccc(F)cc2)Cc2ccc(cc2)OCCC[C@@H]1C(=O)NO [Imaging Agent 5]
IC50 (activated MMP-9): 0.74 nM
IC50 (activated MMP-2): 0.58 nM

CC(C)C[C@H]1C(=O)N[C@H](C(=O)NCc2ccc(OCCCF)cc2)Cc2ccc(cc2)OCCC[C@@H]1C(=O)NO [Imaging Agent 6]
Imaging agent distribution, blood [1]: 0.88 ± 0.061 % ID/g
Imaging agent distribution, bone [1]: 2.86 ± 0.124 % ID/g
Imaging agent distribution, heart [1]: 0.69 ± 0.073 % ID/g
Imaging agent distribution, kidney [1]: 6.66 ± 1.46 % ID/g
Imaging agent distribution, liver [1]: 11.3 ± 1.73 % ID/g
Imaging agent distribution, lung [1]: 1.69 ± 0.382 % ID/g
Imaging agent distribution, muscle [1]: 0.44 ± 0.049 % ID/g
Imaging agent distribution, spleen [1]: 0.81 ± 0.021 % ID/g
Imaging agent distribution, tumor [1]: 0.73 ± 0.026 % ID/g
Imaging agent distribution, urine [1]: 7.21 ± 6.71 % ID/g
IC50 (activated MMP-9): 2.98 nM
IC50 (activated MMP-2): 2.74 nM

CC(C)OC(=O)C(C)(C)Oc1ccc(C(=O)c2ccc(Cl)cc2)cc1 [fenofibrate]
99mTc-RP805 uptake in the aortic arch under HFD plus anti-lipid drug (activated MMPs): 2.23±0.28 counts per voxel per mCi injected dose

CCC(C)(C)C(=O)O[C@H]1C[C@@H](C)C=C2C=C[C@H](C)[C@H](CC[C@@H]3C[C@@H](O)CC(=O)O3)[C@H]21 [simvastatin]
99mTc-RP805 uptake in the aortic arch under HFD plus anti-lipid drug (activated MMPs): 3.17±0.52 counts per voxel per mCi injected dose
